Reference: BindingDB's records for doi:10.1021/jm00113a020 (Case Western Reserve University, 1991)
Starred links: 1 amine or outer side, 2 acyl side, 3 side chain; linkers in the order of their positions; H or OH if unused. Residues, ends and D or L forms follow the SMILES beside them. Ethylenediamine = C(CN[*:2])N[*:1]; GABA = NCCCC(=O)O

Experiment: The compound was tested for binding activity towards Opioid receptor delta 1 in guinea pig brain membranes.

Structure (SMILES)	Ki [µM]
NCCCC(=O)NCCNC(=O)[C@H](Cc1ccccc1)NC(=O)CNC(=O)CNC(=O)[C@@H](N)Cc1ccc(O)cc1 (H-YGGF-{Ethylenediamine-GABA})	10.1
NCCCC(=O)NCCCN(CCCNC(=O)[C@H](Cc1ccccc1)NC(=O)CNC(=O)CNC(=O)[C@@H](N)Cc1ccc(O)cc1)C(=O)CCCN (HELM PEPTIDE1{Y.G.G.F.[NCCCC(=O)NCCCN(CCCN[*:1])C(=O)CCCN]}$$$$V2.0)	8.43
NCCCC(=O)NCCN(CCNC(=O)[C@H](Cc1ccccc1)NC(=O)CNC(=O)CNC(=O)[C@@H](N)Cc1ccc(O)cc1)C(=O)CCCN (HELM PEPTIDE1{Y.G.G.F.[NCCCC(=O)NCCN(CCN[*:1])C(=O)CCCN]}$$$$V2.0)	22.7
NCCCC(=O)NCCN(CCN(CCNC(=O)[C@H](Cc1ccccc1)NC(=O)CNC(=O)CNC(=O)[C@@H](N)Cc1ccc(O)cc1)C(=O)CCCN)C(=O)CCCN [4-Amino-N-[2-(4-amino-butyrylamino)-ethyl]-N-[2-((4-amino-butyryl)-{2-[2-(2-{2-[2-amino-3-(4-hydroxy-phenyl)-propionylamino]-acetylamino}-acetylamino)-3-phenyl-propionylamino]-ethyl}-amino)-ethyl]-butyramide] (HELM PEPTIDE1{Y.G.G.F.[NCCCC(=O)NCCN(CCN(CCN[*:1])C(=O)CCCN)C(=O)CCCN]}$$$$V2.0)	> 10
CC[C@H](C)[C@H](NC(=O)[C@H](CCCN=C(N)N)NC(=O)[C@H](CCCN=C(N)N)NC(=O)[C@H](CC(C)C)NC(=O)[C@H](Cc1ccccc1)NC(=O)CNC(=O)CNC(=O)[C@@H](N)Cc1ccc(O)cc1)C(=O)N[C@@H](CCCN=C(N)N)C(=O)N1CCC[C@H]1C(=O)N[C@@H](CCCCN)C(=O)N[C@@H](CC(C)C)C(=O)N[C@@H](CCCCN)C(=O)O [Dynorphin A (1-13)]	0.016
